Results: PMC6895180 (Nature Communications, 2019)
Values joined by “and” are separate entries in the source; they are usually repeats but may differ in a detail not shown here. Identical values can stand only once. Like-named read-outs stand apart in the source and are kept apart here. Marks after values point to notes of the source that are not given here.

What was measured:
[1] = test system: B48: pentamidine, diminazene and melaminophenyl arsenical resistant T. brucei line; assay: microbe, parasite or virus in culture; type: cell-based, Trypanosoma brucei brucei
[2] = test system: T. b. brucei Lister 427WT; assay: Drug susceptibility test (resazurin), Lister 427WT; type: cell-based, Trypanosoma brucei brucei
Protocol: (§1) Drug susceptibility tests with Lister 427WT, TbAT1-KO[48], B48[26] and ISMR1[27] were performed using an assay based on the viability indicator dye resazurin in 96-well plates, each well containing 2 × 10^4 cells. The plates were incubated for 48 h with a doubling dilution series of the test compounds in HMI-9/fetal bovine serum at 37 °C/5% CO2 (23 dilutions starting at 100 µM, except for the pentamidine control (50 µM)), after which resazurin (20 µL of 125 µg mL^−1 resazurin sodium salt solution was added to each well (containing 200 µL of cells and test compound)) was added to each well and the plates incubated for another 24 h. Fluorescence was determined using a FLUOstar Optima (BMG Labtech, Durham, NC) and the results fitted to a sigmoid curve with variable slope using Prism 5.0 or Prism 7.04 (GraphPad, San Diego, CA).

[3] = Cytotoxicity on MRC-5 fibroblasts (resazurin); type: cell-based, human; conditions: human, MRC-5SV2 human embryonic lung fibroblasts
Protocol: Cytotoxicity assays were performed on MRC-5SV2 (Sigma-Aldrich/ECACC, catalogue number 84100401) human embryonic lung fibroblasts, which were cultured in minimum essential medium with Earle’s salt medium, supplemented with L-glutamine, NaHCO3 and 5% inactivated foetal calf serum. All cultures and assays were conducted at 37 °C with 5% CO2. Ten microliters of the aqueous compound dilutions were added to 190 µL of MRC-5SV2 (3 × 10^4 cells mL^−1). Cell growth was compared to untreated control wells (100% cell growth) and medium control wells (0% cell growth). After a 3-day incubation, cell viability was assessed fluorimetrically after the addition of 50 μL resazurin per well (final concentration of 10 µg mL^−1). After 4 h at 37 °C, fluorescence was measured (λex 550 nm, λem 590 nm). The results were expressed as percentage reduction in cell growth/viability compared to control wells and an EC50 was determined.

[4] = test system: T. b. rhodesiense STIB-900; assay: microbe, parasite or virus in culture; type: cell-based, Trypanosoma brucei rhodesiense; conditions: Trypanosoma brucei, RHODESIENSE
Protocol: as §1
(§2) Susceptibility assays with T. brucei Squib 427[49] or T. b. rhodesiense STIB-900[50] were performed under similar conditions as above, but using 10 concentrations of a 4-fold compound dilution series starting at 64 µM. Trypanosoma brucei Squib 427 was seeded at 1.5 × 10^4 parasites/well and T. b. rhodesiense at 4 × 10^3 parasites per well, followed by the addition of resazurin (final concentration of 10 µg mL^−1) after 24 h (T. brucei) or 6 h (T. b. rhodesiense).

[5] = test system: T. brucei Squib 427; assay: microbe, parasite or virus in culture; type: cell-based, Trypanosoma brucei brucei
Protocol: as §1, §2

[6] = test system: ISMR1: isometamidium-resistant T. brucei cell line; assay: microbe, parasite or virus in culture; type: cell-based, Trypanosoma brucei brucei
Protocol: as §1

[7] = test system: TbAT1-KO: T. brucei cell line lacking the TbAT1(P2) transporter gene; assay: microbe, parasite or virus in culture; type: cell-based, Trypanosoma brucei brucei
Protocol: as §1

[8] = test system: P1 transporter; type: cell-based, Trypanosoma brucei; conditions: mean ± SEM, n = 3
Protocol: Non-specific association of radiolabel with the cell pellet was determined using an identical incubation in the presence of saturating (1 mM) unlabelled adenosine.

[9] = biological target: T1, T. brucei ADKIN (Trypanosoma brucei brucei, UniProt Q584S6); assay: ADKIN assay (phosphorylation by purified recombinant enzyme, HPLC); type: biochemical
T1 sequence (Q584S6 1-345): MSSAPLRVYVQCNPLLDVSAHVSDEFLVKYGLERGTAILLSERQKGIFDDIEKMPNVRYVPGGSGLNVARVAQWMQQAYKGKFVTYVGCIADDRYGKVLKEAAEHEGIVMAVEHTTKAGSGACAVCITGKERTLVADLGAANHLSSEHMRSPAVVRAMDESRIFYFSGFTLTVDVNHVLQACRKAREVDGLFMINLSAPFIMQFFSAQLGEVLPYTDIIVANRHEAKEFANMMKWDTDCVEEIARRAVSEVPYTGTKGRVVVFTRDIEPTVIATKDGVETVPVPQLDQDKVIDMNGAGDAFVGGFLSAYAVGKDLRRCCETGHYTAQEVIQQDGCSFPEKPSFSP
Protocol: The T. brucei ADKIN enzyme was diluted in a buffer containing 0.05% (v/v) Tween-20, 50 mM KCl, 0.1 mM dithiothreitol, and 50 mM Tris-HCl, pH 7.5 (dilution buffer), prior to use in the assay. The final assay mixture contained 12.5 ng T. brucei ADKIN, a range between 50 and 1000 µM of nucleoside 9 (or 1000 µM deoxyadenosine in the control reaction), 100 mM KCl, 10 mM MgCl2, 0.5 mM ATP, 5 mM potassium phosphate and 50 mM Tris-HCl, pH 7.5. The assay was incubated at 37 °C for 30 min, and subsequently heated for 2 min at 100 °C to inactivate the enzyme, diluted with 2 volumes of water, centrifuged through a Nanosep 3k Omega filter and mixed 1:1:2 with water and mobile phase. The HPLC analysis was performed on a 2.1 × 150 mm ACE Excel C18 column using a mobile phase composition 4A:76B:20C (see nucleotide pool analysis, Supplementary Information for details). Using these conditions, consecutive samples could be loaded (Supplementary Fig. 12). After 4–5 samples, the column was washed with high percent A (80A:20C) to remove bound ADP and ATP before re-equilibrating the column to original conditions.

[10] = Metabolic stability, pooled human liver microsomes (phase I and II)
Protocol: (§3) Mouse, rat, and pooled human liver microsomes were purchased from a commercial source (Corning) and stored at -80 °C. NADPH generating system solutions A and B and UGT reaction mix solutions A and B (Corning) were kept at -20°C. The test compound and the reference compounds diclofenac (MW […]
(§4) microsomal stability assay was carried out based on the BD Biosciences Guidelines for Use (TF000017 Rev1.0) with minor adaptations. Metabolic stability of the compounds was studied through the CYP450 superfamily (phase I metabolism) by fortification with reduced nicotinamide adenine dinucleotide phosphate (NADPH) and through uridine glucuronosyl-transferase (UGT) enzymes (phase II metabolism) by fortification with uridine diphosphate glucuronic acid (UDPGA). For the CYP450 and other NADPH dependent enzymes, both compounds were incubated at 5 µM together with 0.5 mg mL-1 liver microsomes in potassium phosphate buffer in a reaction started by the addition of 1 mM NADPH […]
(§5) At these time points, 20 µL was withdrawn from the reaction mixture and 80 µL cold acetonitrile (ACN) containing the internal standard tolbutamide, was added to inactivate the enzymes and precipitate the proteins. The mixture was vortexed for 30 s and centrifuged at 4 °C for 5 min at 15,000 rpm. The supernatant was stored at -80°C until analysis. For the UGT enzymes, both compounds were incubated at 5 µM together with 0.5 mg mL-1 liver microsomes in a reaction started by the addition of 2 mM UDPGA cofactor. The corresponding loss of parent compound was determined using liquid chromatography (UPLC) (Waters AquityTM) coupled with tandem quadrupole mass spectrometry (MS²) (Waters XevoTM), equipped with an electrospray ionization (ESI) interface and operated in multiple reaction monitoring (MRM) mode. […]

[11] = Metabolic stability, mouse liver microsomes (phase I and II)
Protocol: as §3, §4, §5

[12] = Metabolic stability, rat liver microsomes (phase I and II)
Protocol: as §3, §4, §5

[13] = resistance factor vs Lister 427WT

Question: Which EC50 ([1]; Trypanosoma brucei, mean and SEM, n = 3, read-out: B48 EC50) does the source give for Nc1ncnc2c1ccn2[C@H]1C[C@H](O)[C@@H](CO)O1 [Compound 11, 2′-Deoxy-TUB] here?
Answer: Its EC50 is 41.8 ± 1.4 µM.

Question: And the EC50 ([1]; Trypanosoma brucei, source data, read-out: B48 EC50, single determinations)?
Answer: Its EC50 is 40.3 µM.

Question: What about the “RF (B48)” value [1, 13] of the same compound?
Answer: The value was 0.43**.

Question: And the EC50 ([1]; source data, read-out: B48 EC50, single determinations)?
Answer: The EC50 was 43.2 µM and 40.8 µM.

Question: And the EC50 ([2]; Trypanosoma brucei, mean and SEM, n = 3, read-out: Lister 427 EC50)?
Answer: Its EC50 is 96.4 ± 13.8 µM.

Question: And the EC50 ([2]; Trypanosoma brucei, source data, read-out: s427 EC50, single determinations)?
Answer: Its EC50 is 82.6 µM.

Question: And the EC50 ([2]; source data, read-out: s427 EC50, single determinations)?
Answer: The EC50 was 97.4 µM.

Question: What about the EC50 at 3 day ([3]; cytotoxicity in human MRC-5 fibroblasts, mean and SEM, read-out: MRC-5 EC50) of the same compound?
Answer: Its EC50 at 3 day is greater than 64 µM.

Question: What about the EC50 at 3 day ([3]; source data, read-out: MRC-5 EC50, single measurements) of the same compound?
Answer: The EC50 at 3 day was greater than 64 µM.

Question: And the EC50 ([4]; Alamar blue cell viability assay, mean and SEM, read-out: T. b. rhodesiense EC50)?
Answer: The EC50 was greater than 64 µM.

Question: And the EC50 ([4]; source data, read-out: T. brucei rhodesiense EC50, single measurements)?
Answer: Its EC50 is greater than 64 µM.

Question: And the EC50 ([5]; Trypanosoma brucei, Alamar blue cell viability assay, mean and SEM, read-out: T. b. brucei EC50)?
Answer: The EC50 was 48 ± 1 µM.

Question: What about the EC50 ([5]; Trypanosoma brucei, source data, read-out: T. brucei brucei EC50, Average) of the same compound?
Answer: The EC50 was 48.5 µM.

Question: What about the EC50 ([5]; Trypanosoma brucei, source data, read-out: T. brucei brucei EC50, single measurements) of the same compound?
Answer: Its EC50 is 49.9 µM.

Question: And the “SI (MRC/T.b. brucei)” value ([5]; selectivity index)?
Answer: The value was 1.3.

Question: What about the EC50 ([5]; source data, read-out: T. brucei brucei EC50, single measurements) of the same compound?
Answer: Its EC50 is 47.2 µM.

Question: And the EC50 ([6]; Trypanosoma brucei, mean and SEM, n = 3, read-out: ISMR1 EC50)?
Answer: Its EC50 is 77.8 ± 1.7 µM.

Question: What about the EC50 ([6]; Trypanosoma brucei, source data, read-out: ISMR1 EC50, single determinations) of the same compound?
Answer: The EC50 was 77.3 µM.

Question: What about the “RF (ISMR1)” value [6, 13] of the same compound?
Answer: Its value is 0.81.

Question: What about the EC50 ([6]; source data, read-out: ISMR1 EC50, single determinations) of the same compound?
Answer: Its EC50 is 81 µM and 75.1 µM.

Question: What about the EC50 ([7]; Trypanosoma brucei, read-out: TbAT1-KO EC50, mean and SEM, n = 3) of the same compound?
Answer: The EC50 was 43.7 ± 2.2 µM.

Question: What about the EC50 ([7]; Trypanosoma brucei, read-out: TbAT1-KO EC50, single determinations, source data) of the same compound?
Answer: Its EC50 is 41.5 µM.

Question: And the EC50 ([7]; read-out: TbAT1-KO EC50, single determinations, source data)?
Answer: The EC50 was 45.9 µM and 46.9 µM.

Question: What about the “RF (TbAT1-KO)” value ([7]; resistance factor: ratio of EC50 of resistant and Lister 427WT) of the same compound?
Answer: Its value is 0.45**.

Question: For Nc1ncnc2c1ncn2[C@@H]1O[C@H](CO)[C@@H](O)[C@H]1O [Adenosine, reference compound], which Km [8] is on record?
Answer: Its Km is 0.12 ± 0.02 µM.

Question: Which results are given for Nc1ncnc2c1ncn2[C@H]1C[C@H](O)[C@@H](CO)O1 [dAdo, 2′-deoxyadenosine, reference compound]?
Answer: product concentration (Conc.9-MP) ([9]; TbAK control reaction, [dAdo] 1000 µM): 34.4568 and 29.4118 and 31.8858; Act (U/mg) ([9]; TbAK, substrate 1000 µM): 4.594 U/mg and 3.922 U/mg and 4.251 U/mg

Question: With OC(Cn1cncn1)(Cn1cncn1)c1ccc(F)cc1F [Fluco, fluconazole, reference compound] as the compound, how does the “% parent compound remaining” value ([10]; CYP - NADPH, 15 min) read?
Answer: The value was 110%.

Question: And the “% parent compound remaining” value ([10]; CYP - NADPH, 30 min)?
Answer: The value was 80%.

Question: What about the “% parent compound remaining” value ([10]; CYP - NADPH, 60 min) of the same compound?
Answer: The value was 103%.

Question: What about the “% parent compound remaining” value ([10]; UGT Enzymes, 15 min) of the same compound?
Answer: Its value is 103%.

Question: What about the “% parent compound remaining” value ([10]; UGT Enzymes, 30 min) of the same compound?
Answer: Its value is 116%.

Question: What about the “% parent compound remaining” value ([10]; UGT Enzymes, 60 min) of the same compound?
Answer: Its value is 106%.

Question: What about the “% parent compound remaining” value ([11]; CYP - NADPH, 15 min) of the same compound?
Answer: The value was 111±12%.

Question: What about the “% parent compound remaining” value ([11]; CYP - NADPH, 30 min) of the same compound?
Answer: The value was 93±19%.

Question: And the “% parent compound remaining” value ([11]; CYP - NADPH, 60 min)?
Answer: The value was 100±12%.

Question: And the “% parent compound remaining” value ([11]; UGT Enzymes, 15 min)?
Answer: The value was 99±19%.

Question: What about the “% parent compound remaining” value ([11]; UGT Enzymes, 30 min) of the same compound?
Answer: The value was 104±3%.

Question: What about the “% parent compound remaining” value ([11]; UGT Enzymes, 60 min) of the same compound?
Answer: The value was 100±6%.

Question: What about the “% parent compound remaining” value ([12]; CYP - NADPH, 15 min) of the same compound?
Answer: Its value is 110%.

Question: And the “% parent compound remaining” value ([12]; CYP - NADPH, 30 min)?
Answer: The value was 104%.

Question: What about the “% parent compound remaining” value ([12]; CYP - NADPH, 60 min) of the same compound?
Answer: The value was 96%.

Question: What about the “% parent compound remaining” value ([12]; UGT Enzymes, 15 min) of the same compound?
Answer: Its value is 111%.

Question: What about the “% parent compound remaining” value ([12]; UGT Enzymes, 30 min) of the same compound?
Answer: Its value is 105%.

Question: And the “% parent compound remaining” value ([12]; UGT Enzymes, 60 min)?
Answer: Its value is 112%.
